Results: patent US8957035B2, “Toll like receptor (TLR) stimulation for ocular angiogenesis and macular degeneration” (University of Kentucky Research Foundation, priority 2006, dated 2015)
“Also recorded” adds a separate entry of the source. d = 2'-deoxy (DNA); r = 2'-OH (RNA)

Experiments:
Assay type in all cases: in vivo, mouse
[1] = system: choroidal neovascularization; experiment: Laser-induced choroidal neovascularization (CNV) volume in mice; conditions: for effect on choroidal neovascularization (CNV): FIG. 1, 0.2-2 μg, poly I:C vs control poly dI:dC, loxoribine vs control PBS; for ability to suppress CNV in IL-10−/− mice / ability to suppress CNV in IL-12−/− mice: FIG. 6, 2 μg; for ability to suppress CNV in IL-10−/− mice: IL-10−/− mice versus wild-type; for ability to suppress CNV in IL-12−/− mice: IL-12−/− mice versus wild-type; for CNV volume in wild-type mice versus PBS: FIG. 7/8, 0.25 μg into the vitreous humor immediately after laser injury; for CNV in TLR3−/− mice: FIG. 7, differences not statistically significant
Description: All animal experiments were in accordance with the guidelines of the University of Kentucky IACUC and the Association for Research in Vision and Ophthalmology. Male C57BL/6J mice (Jackson Laboratory) between 6 and 8 weeks of age were used to minimize variability. The sources for the other mouse strains were: TLR3−/−, IL-10−/−, IL-12−/−, IFNγ−/− (Jackson Laboratory), IFNAR-1−/− (gift of H. Virgin, Washington University), TLR7−/− (gift of D. Golenback, University of Massachusetts), TLR9−/− (gift of E. Pearlman, Case Western Reserve University), VEGFR1 tyrosine kinase−/− (gift of M. Shibuya, University of Tokyo), Trif−/− (Trif deficient Lps2 mice from The Jackson Laboratories). For all procedures, anesthesia was achieved by intraperitoneal injection of 50 mg/kg ketamine hydrochloride (Ft. Dodge Animal Health) and 10 mg/kg xylazine (Phoenix Scientific), and pupils were dilated with topical 1% tropicamide (Alcon Laboratories).
(§1) Laser photocoagulation (532 nm, 200 mW, 100 ms, 75 μm) (OcuLight GL, Iridex Corporation) was performed (volume studies: 3/eye; protein analyses/flow cytometry: 12/eye) on both eyes of each animal to induce CNV (choroidal neovascularization). CNV volumes were measured by scanning laser confocal microscope (TCS SP, Leica) with 0.5% FITC-Griffonia simplicifolia Isolectin B4 (Vector Laboratories) or 0.5% FITC-rat antibody against mouse CD31 (BD Biosciences). Volumes obtained by lectin and CD31 staining were highly correlated (r^2=0.95).
Also tested were shorter non-targeted siRNAs: a 5+2 length nucleotide (5 nucleotides plus a 2 nucleotide overhang, with one strand having the sequence UAAGGdTdT and the other strand having the sequence CCUUAdTdT), and a 11+2 length nucleotide (11 nucleotides plus a 2 nucleotide overhang, with one strand having the sequence […]dTdT and the other strand having the sequence […]dTdT).
Because the probability of each laser lesion developing CNV is influenced by the group to which it belongs, the mouse, the eye, and the laser spot, the mean lesion volumes were compared using a linear mixed model with a split plot repeated measures design. The whole plot factor was the genetic group to which the animal belonged while the split plot factor was the eye. Statistical significance was determined at the 0.05 level. Post hoc comparison of means was constructed with a Bonferroni adjustment for multiple comparisons. ELISA measurements were compared by Student's t-test.

IL-10 = IL-10 protein ELISA in RPE/choroid after laser injury; conditions: FIG. 4; 2 μg; wild-type mice; 3 days after laser injury
Description: as §1, with “(r^2=0.95). […]” for “(r^2=0.95).”
(§2) IL-10 and IL-12 protein levels were measured by ELISA (Peprotech) according to the manufacturer's instructions, as were IFN-α, IFN-β and IFN-γ (PBL InterferonSource). Total protein was measured according to Biorad.
(§3) Because the probability of each laser lesion developing CNV is influenced by the group to which it belongs, the mouse, the eye, and the laser spot, the mean lesion volumes were compared using a linear mixed model with a split plot repeated measures design. […] Statistical significance was determined at the 0.05 level. […]

IL-12 = IL-12 protein ELISA in RPE/choroid after laser injury; conditions: FIG. 4; 2 μg; wild-type mice; 1 day after laser injury
Description: as §1, with “(r^2=0.95). […]” for “(r^2=0.95).”
as §2, §3
IFN-α and IFN-β were measured by ELISA and normalized to total protein. […] IFN-γ was measured by ELISA (PBL InterferonSource) and IL-12 was measured by ELISA (eBioscience) and normalized to total protein. *P<0.05.

[2] = dose-dependent, intravitreous immediately after laser injury, P<0.05

Row | Compound | effect on choroidal neovascularization (CNV) [1, 2] | ability to suppress CNV in IL-10−/− mice [1] | ability to suppress CNV in IL-12−/− mice [1] | IL-10 protein expression in the RPE/choroid (IL-10) | IL-12 protein expression in the RPE/choroid (IL-12) | effect on choroidal neovascularization in wild-type C57BL/6J mice ([1]; FIG. 14, intravitreous immediately after laser injury, dose-dependent, P<0.05) | CNV volume in wild-type mice versus PBS ([1]; P<0.05) | CNV in TLR3−/− mice ([1]; 0.25 μg intravitreous) | CNV in VEGFR1 tk−/− mice versus PBS ([1]; FIG. 8, 0.25 μg intravitreous, VEGFR1 tyrosine kinase−/− mice, P<0.05)
1 | Poly I:C | reduced CNV | markedly reduced | markedly reduced | induced | induced | – | – | – | –
2 | recombinant mouse IFNγ: recombinant mouse IFNγ (eBioscience) | – | – | – | – | – | reduced choroidal neovascularization | – | – | –
3 | Sirna-027: siRNA against VEGFR-1; sense CUGAGUUUAAAAGGCACCCdTdT, antisense GGGUGCCUUUUAAACUCAGdTdT (sense CUGAGUUUAAAAGGCACCCTT; antisense GGGUGCCUUUUAAACUCAGTT; sugars from the 5' end r19 d2, backbone not given here) | – | – | – | – | – | – | essentially equally effective in suppressing CNV; also recorded: significantly lower than control | non of them suppressed CNV | suppressed CNV
4 | Bevasiranib: siRNA against VEGF-A; sense ACCUCACCAAGGCCAGCACdTdT, antisense GUGCUGGCCUUGGUGAGGUdTdT (sense ACCUCACCAAGGCCAGCACTT; antisense GUGCUGGCCUUGGUGAGGUTT; sugars from the 5' end r19 d2, backbone not given here) | – | – | – | – | – | – | essentially equally effective in suppressing CNV | non of them suppressed CNV | –
5 | C=CCn1c(=O)n([C@@H]2O[C@H](CO)[C@@H](O)[C@H]2O)c2nc(N)[nH]c(=O)c21 [Loxoribine] | reduced CNV | markedly reduced | markedly reduced | induced | induced | – | – | – | –
